Assay results reported in US8933015B2, “Macrocyclic inhibitors of flaviviridae viruses” (Gilead Sciences, Inc., priority 2010, dated 2015).

Tests used:
[1] = target: cyclophilin A (Homo sapiens, UniProt P62937); assay: Cyclophilin A TR-FRET competitive binding assay; conditions: inhibition of cyclophilin binding; 5 nM CypA, 150 nM CsA-Cy5
Experimental: Cyclophilin A TR-FRET Competitive Binding Assay
Inhibitor potency was measured using a competitive binding assay with a time-resolved fluorescence resonance energy transfer (TR-FRET) readout. […] The total volume of the assay solution was 100 μL. […] An IC50 value was calculated using a four-parameter logistic fit.

[2] = test system: human hepatoma Huh-7 cell line harboring a HCV replicon; assay: HCV replicon assay (inhibition of viral replication, luciferase); format: cell-based; conditions: Hepatitis C virus; for EC50: Huh-7, 72 h; for inhibition at 1 µM: Huh-7, read-out: % inhibition at 1 μM
Experimental: The anti-HCV activity of the compounds of this invention was tested in a human hepatoma Huh-7 cell line harboring a HCV replicon. The assay comprised the following steps:
Step 1: Compound Preparation and Serial Dilution
Serial dilution was performed in 100% DMSO in a 384-well plate. A solution containing a compound at 225-fold concentration of the starting final serial dilution concentration was prepared in 100% DMSO and 15 uL added to the pre-specified wells in column 3 or 13 of a polypropylene 384-well plate. The rest of the 384-well plate was filled with 10 uL 100% DMSO except for columns 23 and 24, where 10 uL of 500 uM a HCV protease inhibitor (ITMN-191) in 100% DMSO was added. […] The plate was then placed on a Biomek FX Workstation to start the serial dilution. The serial dilution was performed for ten cycles of 3-fold dilution from column 3 to 12 or from column 13 to 22.
Step 2: Cell Culture Plate Preparation and Compound Addition
To each well of a black polypropylene 384-well plate, 90 μL of cell media containing 1600 suspended Huh-7 HCV replicon cells was added with a Biotek uFlow Workstation. A volume of 0.4 μL of the compound solution was transferred from the serial dilution plate to the cell culture plate on a Biomek FX Workstation. The DMSO concentration in the final assay condition was 0.44%. The plates were incubated for 3 days at 37° C. with 5% CO2 and 85% humidity.
Step 3: Detection of Cytotoxicity and Inhibition of Viral Replication
b) Assessment of inhibition of viral replication: The calcein-PBS solution in the 384-well cell culture plate was aspirated with a Biotek EL405 plate-washer. A volume of 20 μL of Dual-Glo luciferase buffer (Promega, Dual-Glo Luciferase Assay Reagent, cat. #E298B) was added to each well of the plate with a Biotek uFlow Workstation. The plate was incubated for 10 minutes at room temperature. A volume of 20 μL of a solution containing 1:100 mixture of Dual-Glo Stop & Glo substrate (Promega, Dual-Glo Luciferase Assay Reagent, cat. #E313B) and Dual-Glo Stop & Glo buffer (Promega, Dual-Glo Luciferase Assay Reagent, cat. #E314B) was then added to each well of the plate with a Biotek uFlow Workstation. The plate was incubated at room temperature for 10 minutes before the luminescence signal was measured with a Perkin Elmer Envision Plate Reader.
The percent cytotoxicity was determined by calcein AM conversion to fluorescent product. The average fluorescent signal from the DMSO control wells were defined as 100% nontoxic. The individual fluorescent signal from testing compound treated well was divided by the average signal from DMSO control wells and then multiplied by 100% to get the percent viability. The percent anti-HCV replication activity was determined by the luminescence signal from the testing well compared to DMSO controls wells. The background signal was determined by the average luminescence signal from the HCV protease inhibitor treated wells and was subtracted from the signal from the testing wells as well as the DMSO control wells.
Where b is Hill's coefficient. See, for reference, Hill, A. V., The Possible Effects of the Aggregation of the Molecules of Hemoglobin on its Dissociation Curves, J. Physiol. 40: iv-vii. (1910).
% inhibition values at a specific concentration, for example 2 μM, can also be derived from the formula above.
The EC50's are presented as a % inhibition.

Chain of cyclophilin A (P62937 whole entry, species assumed): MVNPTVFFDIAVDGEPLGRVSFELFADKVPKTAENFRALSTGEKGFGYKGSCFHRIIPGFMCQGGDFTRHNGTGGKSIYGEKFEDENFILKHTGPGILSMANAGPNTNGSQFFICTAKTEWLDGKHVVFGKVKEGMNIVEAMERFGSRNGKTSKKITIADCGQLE

CO[C@@H]1CC/C=C/C2=CC=C(COC(=O)[C@@H]3CCCN(N3)C(=O)[C@H](Cc3cccc(O)c3)NC(=O)[C@H](C(C)C)NC(=O)[C@@H]1C)S2 [Compound 26, (E)-(1S,13R,14R,17S,20S)-20-(3-Hydroxy-benzyl)-17-isopropyl-13-methoxy-14-methyl-3-oxa-27-thia-16,19,22,26-tetraaza-tricyclo[20.3.1.1*5,8*]heptacosa-5,7,9-triene-2,15,18,21-tetraone]
IC50 [1]: 101 to 1000 nM
EC50 [2]: 10100 to 100000 nM
inhibition at 1 µM [2]: 9%

CO[C@@H]1[C@@H](C)[C@@H](OC)/C=C/C=C/CCOC(=O)[C@@H]2CCCN(N2)C(=O)[C@H](Cc2cccc(O)c2)NC(=O)[C@H](C(C)C)NC(=O)[C@@H]1C [Compound 3, (13E,15E)-(3S,6S,9R,10R,11S,12S,21S)-3-(3-Hydroxy-benzyl)-6-isopropyl-10,12-dimethoxy-9,11-dimethyl-19-oxa-1,4,7,25-tetraaza-bicyclo[19.3.1]pentacosa-13,15-diene-2,5,8,20-tetraone]
EC50 [2]: < 1000 nM
inhibition at 1 µM [2]: 59%

CO[C@@H]1[C@@H](C)[C@@H](OC)/C=C/C=C/CCNC(=O)[C@@H]2CCCN(N2)C(=O)[C@H](Cc2cccc(O)c2)NC(=O)[C@H](C(C)C)NC(=O)[C@@H]1C [Compound 4, (13E,15E)-(3S,6S,9R,10R,11S,12S,21S)-3-(3-Hydroxy-benzyl)-6-isopropyl-10,12-dimethoxy-9,11-dimethyl-1,4,7,19,25-pentaaza-bicyclo[19.3.1]pentacosa-13,15-diene-2,5,8,20-tetraone]
IC50 [1]: < 100 nM
EC50 [2]: 1100 to 10000 nM
inhibition at 1 µM [2]: 10%

CO[C@@H]1CC/C=C/CCCCOC(=O)[C@@H]2CCCN(N2)C(=O)[C@H](Cc2cccc(O)c2)NC(=O)[C@H](C(C)C)NC(=O)[C@@H]1C [Compound 23, (E)-(3S,6S,9R,10R,21S)-3-(3-Hydroxy-benzyl)-6-isopropyl-10-methoxy-9-methyl-19-oxa-1,4,7,25-tetraaza-bicyclo[19.3.1]pentacos-13-ene-2,5,8,20-tetraone]
IC50 [1]: 101 to 1000 nM
EC50 [2]: < 1000 nM
inhibition at 1 µM [2]: 41%

CO[C@@H]1[C@@H](C)[C@@H](OC)/C=C/c2cccc(c2)COC(=O)[C@@H]2CCCN(N2)C(=O)[C@H](Cc2cccc(O)c2)NC(=O)[C@H](C(C)C)NC(=O)[C@@H]1C [Compound 5, (E)-(5S,11S,14S,17R,18R,19S,20S)-11-(3-Hydroxy-benzyl)-14-isopropyl-18,20-dimethoxy-17,19-dimethyl-3-oxa-9,12,15,28-tetraaza-tricyclo[21.3.1.1*5,9*]octacosa-1(27),21,23,25-tetraene-4,10,13,16-tetraone]
IC50 [1]: < 100 nM
EC50 [2]: < 1000 nM
inhibition at 1 µM [2]: 67%

CCO[C@@H]1CC/C=C/c2cccc(c2)COC(=O)[C@@H]2CCCN(N2)C(=O)[C@H](Cc2cccc(O)c2)NC(=O)[C@H](C(C)C)NC(=O)[C@@H]1C [Compound 24, (E)-(5S,11S,14S,17R,18R)-18-Ethoxy-11-(3-hydroxy-benzyl)-14-isopropyl-17-methyl-3-oxa-9,12,15,28-tetraaza-tricyclo[21.3.1.1*5,9*]octacosa-1(26),21,23(27),24-tetraene-4,10,13,16-tetraone]
IC50 [1]: < 100 nM
EC50 [2]: < 1000 nM
inhibition at 1 µM [2]: 65%

CO[C@@H]1[C@@H](C)[C@@H](OC)CCc2cccc(c2)CNC(=O)[C@@H]2CCCN(N2)C(=O)[C@H](Cc2cccc(O)c2)NC(=O)[C@H](C(C)C)NC(=O)[C@@H]1C [Compound 25, (5S,11S,14S,17R,18R,19S,20S)-11-(3-Hydroxy-benzyl)-14-isopropyl-18,20-dimethoxy-17,19-dimethyl-3,9,12,15,28-pentaaza-tricyclo[21.3.1.1*5,9*]octacosa-1(27),23,25-triene-4,10,13,16-tetraone]
IC50 [1]: 101 to 1000 nM
EC50 [2]: 1100 to 10000 nM
inhibition at 1 µM [2]: 34%

CO[C@@H]1CC/C=C/c2ccnc(c2)COC(=O)[C@@H]2CCCN(N2)C(=O)[C@H](Cc2cccc(O)c2)NC(=O)[C@H](C(C)C)NC(=O)[C@@H]1C [Compound 17, (E)-(1S,14R,15R,18S,21S)-21-(3-Hydroxy-benzyl)-18-isopropyl-14-methoxy-15-methyl-3-oxa-6,17,20,23,27-pentaaza-tricyclo[21.3.1.1*5,9*]octacosa-5,7,9(28),10-tetraene-2,16,19,22-tetraone]
IC50 [1]: < 100 nM
EC50 [2]: < 1000 nM
inhibition at 1 µM [2]: 56%

CO[C@@H]1[C@@H](C)[C@@H](OC)/C=C/C=C/C[C@@H](C)OC(=O)[C@@H]2CCCN(N2)C(=O)[C@H](Cc2cccc(O)c2)NC(=O)[C@H](C(C)C)NC(=O)[C@@H]1C [Compound 12, (13E,15E)-(3S,6S,9R,10R,11S,12S,18R,21S)-3-(3-Hydroxy-benzyl)-6-isopropyl-10,12-dimethoxy-9,11,18-trimethyl-19-oxa-1,4,7,25-tetraaza-bicyclo[19.3.1]pentacosa-13,15-diene-2,5,8,20-tetraone]
IC50 [1]: < 100 nM
EC50 [2]: < 1000 nM
inhibition at 1 µM [2]: 82%

CO[C@@H]1CC/C=C/c2ccc3c(c2)[C@@H](CC3)OC(=O)[C@@H]2CCCN(N2)C(=O)[C@H](Cc2cccc(O)c2)NC(=O)[C@H](C(C)C)NC(=O)[C@@H]1C [Compound 19]
IC50 [1]: < 100 nM
EC50 [2]: < 1000 nM
inhibition at 1 µM [2]: 70%

CC(C)[C@@H]1NC(=O)[C@H](C)[C@H](O)c2ccc(cc2)/C=C/CCOC(=O)[C@@H]2CCCN(N2)C(=O)[C@H](Cc2cccc(O)c2)NC1=O [Compound 8, (E)-(8S,14S,17S,20R,21S)-21-Hydroxy-14-(3-hydroxy-benzyl)-17-isopropyl-20-methyl-6-oxa-12,15,18,27-tetraaza-tricyclo[20.2.2.1*8,12*]heptacosa-1(25),2,22(26),23-tetraene-7,13,16,19-tetraone]
IC50 [1]: 101 to 1000 nM
inhibition at 1 µM [2]: 13%

CO[C@@H]1CC/C=C/c2cccc(c2)COC(=O)[C@@H]2CCCN(N2)C(=O)[C@H](Cc2cccc(O)c2)NC(=O)[C@H](C(C)C)NC(=O)[C@@H]1C [Compound 10, (E)-(5S,11S,14S,17R,18R)-11-(3-Hydroxy-benzyl)-14-isopropyl-18-methoxy-17-methyl-3-oxa-9,12,15,28-tetraaza-tricyclo[21.3.1.1*5,9*]octacosa-1(27),21,23,25-tetraene-4,10,13,16-tetraone]
inhibition at 1 µM [2]: 59%

CO[C@@H]1CC/C=C/c2cccc(c2)[C@@H](C)OC(=O)[C@@H]2CCCN(N2)C(=O)[C@H](Cc2cccc(O)c2)NC(=O)[C@H](C(C)C)NC(=O)[C@@H]1C [Compound 13, (E)-(2R,5S,11S,14S,17R,18R)-11-(3-Hydroxy-benzyl)-14-isopropyl-18-methoxy-2,17-dimethyl-3-oxa-9,12,15,28-tetraaza-tricyclo[21.3.1.1*5,9*]octacosa-1(26),21,23(27),24-tetraene-4,10,13,16-tetraone]
EC50 [2]: < 1000 nM
inhibition at 1 µM [2]: 93%

CO[C@@H]1CC/C=C/C=C/CCOC(=O)[C@@H]2CCCN(N2)C(=O)[C@H](Cc2cccc(O)c2)NC(=O)[C@H](C(C)C)NC(=O)[C@@H]1C [Compound 11, (13E,15E)-(3S,6S,9R,10R,21S)-3-(3-Hydroxy-benzyl)-6-isopropyl-10-methoxy-9-methyl-19-oxa-1,4,7,25-tetraaza-bicyclo[19.3.1]pentacosa-13,15-diene-2,5,8,20-tetraone]
EC50 [2]: < 1000 nM
inhibition at 1 µM [2]: 67%
